We go through 27 molecules from patent US9283222B2 (priority 2006, dated 2016).

In this test the target is Recombinant Human Poly(ADP-Ribose) Polymerase (PARP), PARP-1 (Homo sapiens (Human), UniProt P09874). Conditions: read-out: PARP-1 (Ki); Table 1; text calls the values EC50s.
Recombinant Human Poly(ADP-Ribose) Polymerase (PARP), PARP-1, sequence (P09874 whole entry): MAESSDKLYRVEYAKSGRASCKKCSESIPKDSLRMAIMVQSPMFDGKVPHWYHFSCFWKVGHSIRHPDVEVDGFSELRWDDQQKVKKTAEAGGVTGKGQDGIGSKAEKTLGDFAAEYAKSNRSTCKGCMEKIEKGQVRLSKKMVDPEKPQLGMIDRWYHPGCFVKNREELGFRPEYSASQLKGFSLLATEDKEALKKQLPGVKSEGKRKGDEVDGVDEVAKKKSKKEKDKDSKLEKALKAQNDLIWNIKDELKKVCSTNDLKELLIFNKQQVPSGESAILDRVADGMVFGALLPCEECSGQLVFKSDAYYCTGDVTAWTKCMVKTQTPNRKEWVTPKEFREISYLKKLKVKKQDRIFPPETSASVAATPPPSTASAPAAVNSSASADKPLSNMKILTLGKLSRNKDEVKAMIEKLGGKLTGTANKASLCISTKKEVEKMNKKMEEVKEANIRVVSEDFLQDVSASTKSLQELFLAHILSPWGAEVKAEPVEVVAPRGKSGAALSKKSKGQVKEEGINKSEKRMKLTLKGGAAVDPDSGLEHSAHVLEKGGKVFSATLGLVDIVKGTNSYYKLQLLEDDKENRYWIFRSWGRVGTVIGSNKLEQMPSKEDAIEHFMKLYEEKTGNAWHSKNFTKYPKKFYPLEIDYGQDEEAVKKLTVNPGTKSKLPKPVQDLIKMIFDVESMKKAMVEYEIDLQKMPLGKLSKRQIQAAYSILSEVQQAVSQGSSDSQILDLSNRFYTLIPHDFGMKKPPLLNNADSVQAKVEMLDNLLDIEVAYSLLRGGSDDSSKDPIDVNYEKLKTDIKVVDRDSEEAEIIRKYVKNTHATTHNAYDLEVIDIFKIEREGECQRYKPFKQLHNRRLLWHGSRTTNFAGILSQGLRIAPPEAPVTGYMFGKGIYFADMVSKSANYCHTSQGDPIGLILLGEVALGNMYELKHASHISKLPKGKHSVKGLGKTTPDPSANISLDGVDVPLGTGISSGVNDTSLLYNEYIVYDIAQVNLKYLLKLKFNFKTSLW
On to `Cc1ccccc1OCC(=O)Nc1cccc(Cc2n[nH]c(=O)c3c2CCCC3)c1` [Example 149, 2-(2-methylphenoxy)-N-(3-((4-oxo-3,4,5,6,7,8-hexahydrophthalazin-1-yl)methyl)phenyl)acetamide], for which the Ki stood at 0.022 µM.
On to `Cc1ccc(OCC(=O)Nc2cccc(Cc3n[nH]c(=O)c4c3CCCC4)c2)cc1` [Example 150, 2-(4-methylphenoxy)-N-(3-((4-oxo-3,4,5,6,7,8-hexahydrophthalazin-1-yl)methyl)phenyl)acetamide], for which the Ki stood at 0.016 µM.
As for `CO[C@@H](C(=O)Nc1cccc(Cc2n[nH]c(=O)c3c2CCCC3)c1)c1ccccc1` [Example 151, (2R)-2-methoxy-N-(3-((4-oxo-3,4,5,6,7,8-hexahydrophthalazin-1-yl)methyl)phenyl)-2-phenylacetamide], the Ki turned out to be 0.531 µM.
With `CO[C@H](C(=O)Nc1cccc(Cc2n[nH]c(=O)c3c2CCCC3)c1)c1ccccc1` [Example 152, (2S)-2-methoxy-N-(3-((4-oxo-3,4,5,6,7,8-hexahydrophthalazin-1-yl)methyl)phenyl)-2-phenylacetamide], the Ki was 0.741 µM.
`O=C(CCOc1ccccc1)Nc1cccc(Cc2n[nH]c(=O)c3c2CCCC3)c1` [Example 153, N-(3-((4-oxo-3,4,5,6,7,8-hexahydrophthalazin-1-yl)methyl)phenyl)-3-phenoxypropanamide]: the inhibitory constant (Ki) stood at 0.006 µM.
Take `O=C(CCCc1cccs1)Nc1cccc(Cc2n[nH]c(=O)c3c2CCCC3)c1` [Example 154, N-(3-((4-oxo-3,4,5,6,7,8-hexahydrophthalazin-1-yl)methyl)phenyl)-4-thien-2-ylbutanamide]: the Ki worked out at 0.056 µM.
The same measure for `CC(=O)N1CCC(C(=O)Nc2cccc(Cc3n[nH]c(=O)c4c3CCCC4)c2)CC1` [Example 155, 1-acetyl-N-(3-((4-oxo-3,4,5,6,7,8-hexahydrophthalazin-1-yl)methyl)phenyl)piperidine-4-carboxamide]: 0.126 µM.
The same measure for `O=C(Cc1cc(F)cc(F)c1)Nc1cccc(Cc2n[nH]c(=O)c3c2CCCC3)c1` [Example 156, 2-(3,5-difluorophenyl)-N-(3-((4-oxo-3,4,5,6,7,8-hexahydrophthalazin-1-yl)methyl)phenyl)acetamide]: 0.025 µM; for `CC(=O)N[C@@H](CC(C)C)C(=O)Nc1cccc(Cc2n[nH]c(=O)c3c2CCCC3)c1` [Example 157]: 0.124 µM; for `CCCN(CCC)[C@@H](C)C(=O)Nc1cccc(Cc2n[nH]c(=O)c3c2CCCC3)c1` [Example 158]: 1.59 µM.
In the case of `O=C(CNC(=O)c1ccccc1)Nc1cccc(Cc2n[nH]c(=O)c3c2CCCC3)c1` [Example 160, N-(2-oxo-2-(3-((4-oxo-3,4,5,6,7,8-hexahydrophthalazin-1-yl)methyl)phenylamino)ethyl)benzamide], the Ki came to 0.011 µM.
`COc1cccc(CCC(=O)Nc2cccc(Cc3n[nH]c(=O)c4c3CCCC4)c2)c1` [Example 161, 3-(3-methoxyphenyl)-N-(3-((4-oxo-3,4,5,6,7,8-hexahydrophthalazin-1-yl)methyl)phenyl)propanamide]: the Ki worked out at 0.064 µM.
The figure for `COc1ccc(CCC(=O)Nc2cccc(Cc3n[nH]c(=O)c4c3CCCC4)c2)cc1` [Example 162, 3-(4-methoxyphenyl)-N-(3-((4-oxo-3,4,5,6,7,8-hexahydrophthalazin-1-yl)methyl)phenyl)propanamide] is 0.051 µM; for `Cc1ccc(OCC(=O)Nc2cccc(Cc3n[nH]c(=O)c4c3CCCC4)c2)cc1C` [Example 163, 2-(3,4-dimethylphenoxy)-N-(3-((4-oxo-3,4,5,6,7,8-hexahydrophthalazin-1-yl)methyl)phenyl)acetamide] it is 0.035 µM; for `O=C(Nc1cccc(Cc2n[nH]c(=O)c3c2CCCC3)c1)[C@H](O)CCc1ccccc1` [Example 164, (2R)-2-hydroxy-N-(3-((4-oxo-3,4,5,6,7,8-hexahydrophthalazin-1-yl)methyl)phenyl)-4-phenylbutanamide] it is 0.028 µM.
As for `O=C(CCCOc1ccccc1)Nc1cccc(Cc2n[nH]c(=O)c3c2CCCC3)c1` [Example 165, N-(3-((4-oxo-3,4,5,6,7,8-hexahydrophthalazin-1-yl)methyl)phenyl)-4-phenoxybutanamide], the Ki was 0.014 µM.
The same measure for `O=C(CCC(=O)c1cccs1)Nc1cccc(Cc2n[nH]c(=O)c3c2CCCC3)c1` [Example 166, 4-oxo-N-(3-((4-oxo-3,4,5,6,7,8-hexahydrophthalazin-1-yl)methyl)phenyl)-4-thien-2-ylbutanamide]: 0.005 µM; for `Cc1ccnc(SCC(=O)Nc2cccc(Cc3n[nH]c(=O)c4c3CCCC4)c2)n1` [Example 167, 2-((4-methylpyrimidin-2-yl)thio)-N-(3-((4-oxo-3,4,5,6,7,8-hexahydrophthalazin-1-yl)methyl)phenyl)acetamide]: 0.056 µM.
For `O=C(CCc1ccccc1Cl)Nc1cccc(Cc2n[nH]c(=O)c3c2CCCC3)c1` [Example 168, 3-(2-chlorophenyl)-N-(3-((4-oxo-3,4,5,6,7,8-hexahydrophthalazin-1-yl)methyl)phenyl)propanamide], the Ki turned out to be 0.127 µM.
The figure for `O=C(CCc1ccc(Cl)cc1)Nc1cccc(Cc2n[nH]c(=O)c3c2CCCC3)c1` [Example 169, 3-(4-chlorophenyl)-N-(3-((4-oxo-3,4,5,6,7,8-hexahydrophthalazin-1-yl)methyl)phenyl)propanamide] is 0.099 µM; for `CCC(C)C(C(=O)Nc1cccc(Cc2n[nH]c(=O)c3c2CCCC3)c1)c1ccccc1` (stereo not drawn) [Example 170, 3-methyl-N-(3-((4-oxo-3,4,5,6,7,8-hexahydrophthalazin-1-yl)methyl)phenyl)-2-phenylpentanamide] it is 1.7 µM.
The figure for `Cc1cc(Cl)ccc1OCC(=O)Nc1cccc(Cc2n[nH]c(=O)c3c2CCCC3)c1` [Example 171, 2-(4-chloro-2-methylphenoxy)-N-(3-((4-oxo-3,4,5,6,7,8-hexahydrophthalazin-1-yl)methyl)phenyl)acetamide] is 0.056 µM; for `O=C(CCCC(=O)Nc1cccc(Cc2n[nH]c(=O)c3c2CCCC3)c1)Nc1ccccc1` [Example 172, N-(3-((4-oxo-3,4,5,6,7,8-hexahydrophthalazin-1-yl)methyl)phenyl)-N′-phenylpentanediamide] it is 0.003 µM.
For `COc1ccc(C(=O)CCC(=O)Nc2cccc(Cc3n[nH]c(=O)c4c3CCCC4)c2)cc1` [Example 173, 4-(4-methoxyphenyl)-4-oxo-N-(3-((4-oxo-3,4,5,6,7,8-hexahydrophthalazin-1-yl)methyl)phenyl)butanamide], the Ki was 0.002 µM.
The same measure for `O=C(Nc1cccc(Cc2n[nH]c(=O)c3c2CCCC3)c1)C(c1ccccc1)c1ccccc1` [Example 174, N-(3-((4-oxo-3,4,5,6,7,8-hexahydrophthalazin-1-yl)methyl)phenyl)-2,2-diphenylacetamide]: 0.655 µM.
The figure for `O=C(CCS(=O)(=O)c1ccccc1)Nc1cccc(Cc2n[nH]c(=O)c3c2CCCC3)c1` [Example 175, N-(3-((4-oxo-3,4,5,6,7,8-hexahydrophthalazin-1-yl)methyl)phenyl)-3-(phenylsulfonyl)propanamide] is 0.021 µM; for `O=C(Cc1cccc(Oc2ccccc2)c1)Nc1cccc(Cc2n[nH]c(=O)c3c2CCCC3)c1` [Example 176, N-(3-((4-oxo-3,4,5,6,7,8-hexahydrophthalazin-1-yl)methyl)phenyl)-2-(3-phenoxyphenyl)acetamide] it is 0.043 µM.

A word on the Ki: it is the equilibrium dissociation constant of an inhibitor or competing ligand from its target.
